Assays:
[1] = test system: human Kv1.5 channel; format: cell-based
[2] = test system: human Kv1.4 channel; format: cell-based

CSCC[C@H](NC(=O)[C@@H]1CCCN1C(=O)CNC(=O)[C@H](CO)NC(=O)[C@@H](NC(=O)[C@H](C)N)[C@@H](C)O)C(=O)NCC(=O)N[C@@H](Cc1c[nH]c2ccccc12)C(=O)N[C@@H](CC(C)C)C(=O)N1CCC[C@H]1C(=O)N[C@H](C(=O)N[C@@H](Cc1ccccc1)C(=O)N[C@@H](Cc1ccc(O)cc1)C(=O)N[C@@H](CCCNC(=N)N)C(=O)N[C@@H](Cc1ccccc1)C(N)=O)C(C)C [CNF-Sr3, Conorfamide-Sr3]
Decrease of current, Kv1.5 [1]: less than 5% | Decrease of current, Kv1.4 [2]: less than 5%
